Data published in patent US20230040909A1 (priority 2019, published 2023).
Values after ≈ are worked out from the molar mass of the structure shown. Read-outs that look alike come from different tables or passages of the source.

Columns and labels:
[1] = test system: Mycobacterium abscessus; assay: M. ab_ATCC MIC MHII; assay type: cell-based; settings: for MIC: Mycobacteroides abscessus, read-out: M. ab_ATCC: MIC MHII: MIC
Excerpt: The procedure described in Franz 2017 was used to generate the data shown in column 5 of Table 4.

[2] = test system: VERO Cell; assay: VERO cell cytotoxicity; assay type: cell-based
Excerpt: (§1) The procedures described in Falzari 2005 were used to generate the data shown in column 2 of Table 4.

[3] = test system: M. tb H37Rv; assay: microbe, parasite or virus in culture; assay type: cell-based, Mycobacterium tuberculosis; settings: for MIC: Mycobacterium tuberculosis, H37RV, read-out: M. tb H37Rv: MIC-MABA
[4] = target: hNav1.5 Peak (Homo sapiens, UniProt Q14524); assay: In vitro assessment of ion channels: hNav1.5 Peak; assay type: biochemical
[5] = target: hERG (Homo sapiens, UniProt Q12809); assay: biochemical
[6] = target: hNav1.5 Late (Homo sapiens, UniProt Q14524); assay: In vitro assessment of ion channels: hNav1.5 Late; assay type: biochemical
[7] = QTc (QTcV) prolongation in dogs after oral dosing, with plasma level at 1 hr
[8] = target: hCav1.2 (Homo sapiens, UniProt Q13936); assay: biochemical
[9] = target: hKCNQ1/MinK (Homo sapiens, UniProt P51787); assay: biochemical; assay type: biochemical
[10] = test system: M. tb H37Rv; assay: microbe, parasite or virus in culture; assay type: cell-based; settings: Mycobacterium tuberculosis, read-out: M. tb H37Rv: MIC-LORA
[11] = test system: M. tb H37Rv; assay type: cell-based, Mycobacterium tuberculosis
[12] = VERO cell cytotoxicity; assay type: cell-based; settings: African green monkey, VERO cells
Excerpt: as §1

[13] = Table 3, read-out: hNav1.5 Late IC50

Chain of hCav1.2 (Q13936 whole entry): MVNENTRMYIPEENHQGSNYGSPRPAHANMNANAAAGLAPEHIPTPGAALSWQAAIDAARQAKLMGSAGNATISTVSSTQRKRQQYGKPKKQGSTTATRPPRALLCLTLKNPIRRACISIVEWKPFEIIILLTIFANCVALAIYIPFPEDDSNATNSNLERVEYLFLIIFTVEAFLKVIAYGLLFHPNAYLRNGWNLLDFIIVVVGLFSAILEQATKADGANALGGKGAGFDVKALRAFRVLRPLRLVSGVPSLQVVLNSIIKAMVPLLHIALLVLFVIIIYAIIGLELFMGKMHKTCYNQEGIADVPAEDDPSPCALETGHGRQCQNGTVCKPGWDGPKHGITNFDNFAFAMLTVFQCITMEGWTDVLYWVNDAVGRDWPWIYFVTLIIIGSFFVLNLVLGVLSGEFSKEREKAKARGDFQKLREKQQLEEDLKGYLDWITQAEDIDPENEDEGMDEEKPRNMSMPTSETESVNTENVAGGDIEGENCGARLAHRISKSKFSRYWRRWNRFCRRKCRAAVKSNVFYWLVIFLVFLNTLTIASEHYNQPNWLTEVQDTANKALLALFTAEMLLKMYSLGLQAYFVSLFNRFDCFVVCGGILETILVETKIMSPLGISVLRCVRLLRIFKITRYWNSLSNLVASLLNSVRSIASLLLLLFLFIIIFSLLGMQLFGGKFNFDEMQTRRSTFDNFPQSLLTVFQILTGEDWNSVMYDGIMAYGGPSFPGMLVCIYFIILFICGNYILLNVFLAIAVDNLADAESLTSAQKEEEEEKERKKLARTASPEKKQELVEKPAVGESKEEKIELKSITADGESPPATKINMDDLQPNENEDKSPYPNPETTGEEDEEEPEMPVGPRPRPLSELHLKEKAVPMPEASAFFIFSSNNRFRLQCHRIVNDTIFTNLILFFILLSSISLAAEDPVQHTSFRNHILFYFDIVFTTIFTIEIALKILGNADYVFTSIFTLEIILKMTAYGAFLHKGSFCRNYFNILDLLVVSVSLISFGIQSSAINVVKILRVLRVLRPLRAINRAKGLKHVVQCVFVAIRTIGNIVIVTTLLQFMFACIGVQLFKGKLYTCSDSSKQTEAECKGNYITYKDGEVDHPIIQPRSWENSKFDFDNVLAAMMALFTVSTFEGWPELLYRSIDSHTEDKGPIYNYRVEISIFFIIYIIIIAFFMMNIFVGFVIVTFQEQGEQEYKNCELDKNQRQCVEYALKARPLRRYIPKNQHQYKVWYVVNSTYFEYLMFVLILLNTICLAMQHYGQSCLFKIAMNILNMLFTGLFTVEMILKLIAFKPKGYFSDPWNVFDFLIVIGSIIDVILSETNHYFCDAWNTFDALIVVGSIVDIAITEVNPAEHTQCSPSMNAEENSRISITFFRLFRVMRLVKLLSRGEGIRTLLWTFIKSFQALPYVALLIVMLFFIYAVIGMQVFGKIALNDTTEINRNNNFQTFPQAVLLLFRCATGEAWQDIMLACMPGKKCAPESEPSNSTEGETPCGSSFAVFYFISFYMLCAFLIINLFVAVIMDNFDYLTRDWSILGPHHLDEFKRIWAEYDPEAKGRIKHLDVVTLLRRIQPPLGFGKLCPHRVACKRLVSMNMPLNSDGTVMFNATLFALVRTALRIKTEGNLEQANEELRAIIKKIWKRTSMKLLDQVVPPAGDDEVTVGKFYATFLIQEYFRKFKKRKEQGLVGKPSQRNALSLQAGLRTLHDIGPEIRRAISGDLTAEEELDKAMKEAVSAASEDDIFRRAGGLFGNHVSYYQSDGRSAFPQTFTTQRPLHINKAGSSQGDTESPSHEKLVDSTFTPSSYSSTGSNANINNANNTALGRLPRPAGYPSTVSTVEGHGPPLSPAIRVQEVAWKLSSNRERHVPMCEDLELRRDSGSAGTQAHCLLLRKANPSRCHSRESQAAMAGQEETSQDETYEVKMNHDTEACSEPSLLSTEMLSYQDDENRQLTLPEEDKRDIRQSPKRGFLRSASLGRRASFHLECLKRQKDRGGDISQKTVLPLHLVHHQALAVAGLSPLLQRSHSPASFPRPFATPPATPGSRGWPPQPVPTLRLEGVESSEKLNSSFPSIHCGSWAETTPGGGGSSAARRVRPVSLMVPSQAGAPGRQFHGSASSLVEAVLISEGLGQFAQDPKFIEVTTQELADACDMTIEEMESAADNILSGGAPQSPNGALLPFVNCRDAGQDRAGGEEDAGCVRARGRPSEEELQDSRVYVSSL
Chain of hCav1.2 (Q08289 whole entry partner): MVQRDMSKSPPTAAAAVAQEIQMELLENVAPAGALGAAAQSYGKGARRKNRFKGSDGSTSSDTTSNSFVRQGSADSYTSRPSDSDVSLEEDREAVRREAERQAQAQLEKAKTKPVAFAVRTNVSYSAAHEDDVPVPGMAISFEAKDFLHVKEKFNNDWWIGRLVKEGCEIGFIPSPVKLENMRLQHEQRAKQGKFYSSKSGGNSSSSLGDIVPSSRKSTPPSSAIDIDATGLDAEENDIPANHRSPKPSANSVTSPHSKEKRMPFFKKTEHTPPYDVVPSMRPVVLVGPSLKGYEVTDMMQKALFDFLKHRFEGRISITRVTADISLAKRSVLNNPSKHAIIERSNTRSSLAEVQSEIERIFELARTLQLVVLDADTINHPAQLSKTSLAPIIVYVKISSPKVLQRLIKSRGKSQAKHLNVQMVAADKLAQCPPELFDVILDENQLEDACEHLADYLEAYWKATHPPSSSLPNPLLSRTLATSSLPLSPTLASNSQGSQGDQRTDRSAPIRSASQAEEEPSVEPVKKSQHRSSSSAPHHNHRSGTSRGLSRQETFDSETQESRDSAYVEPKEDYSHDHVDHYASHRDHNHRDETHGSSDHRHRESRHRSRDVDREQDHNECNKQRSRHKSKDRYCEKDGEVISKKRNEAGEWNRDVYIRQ
Chain of hCav1.2 (P54289 25-946 partner limits assumed): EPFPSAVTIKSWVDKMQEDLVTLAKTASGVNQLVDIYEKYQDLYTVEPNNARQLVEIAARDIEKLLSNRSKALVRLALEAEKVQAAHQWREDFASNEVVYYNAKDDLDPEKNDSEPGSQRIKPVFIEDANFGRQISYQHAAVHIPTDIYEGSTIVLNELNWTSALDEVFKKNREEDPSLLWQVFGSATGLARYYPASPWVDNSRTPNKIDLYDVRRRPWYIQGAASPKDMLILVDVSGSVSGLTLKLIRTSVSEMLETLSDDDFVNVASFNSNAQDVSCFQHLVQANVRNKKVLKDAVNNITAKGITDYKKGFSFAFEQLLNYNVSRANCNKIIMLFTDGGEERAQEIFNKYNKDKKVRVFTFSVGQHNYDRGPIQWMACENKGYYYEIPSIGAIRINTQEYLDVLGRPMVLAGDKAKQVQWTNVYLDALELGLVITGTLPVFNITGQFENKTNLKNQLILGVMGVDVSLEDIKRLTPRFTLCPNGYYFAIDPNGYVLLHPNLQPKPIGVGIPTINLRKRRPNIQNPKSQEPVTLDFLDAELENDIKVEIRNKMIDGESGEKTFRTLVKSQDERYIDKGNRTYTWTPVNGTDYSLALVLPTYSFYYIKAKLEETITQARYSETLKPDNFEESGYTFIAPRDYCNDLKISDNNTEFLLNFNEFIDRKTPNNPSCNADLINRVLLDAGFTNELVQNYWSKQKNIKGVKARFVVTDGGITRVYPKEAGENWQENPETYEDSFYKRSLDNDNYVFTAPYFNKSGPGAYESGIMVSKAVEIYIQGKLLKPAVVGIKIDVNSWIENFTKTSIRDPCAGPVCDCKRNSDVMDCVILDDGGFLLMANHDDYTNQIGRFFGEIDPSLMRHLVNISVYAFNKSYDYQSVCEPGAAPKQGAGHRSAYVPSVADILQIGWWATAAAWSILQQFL
Chain of hCav1.2 (P54289 947-1103 partner limits assumed): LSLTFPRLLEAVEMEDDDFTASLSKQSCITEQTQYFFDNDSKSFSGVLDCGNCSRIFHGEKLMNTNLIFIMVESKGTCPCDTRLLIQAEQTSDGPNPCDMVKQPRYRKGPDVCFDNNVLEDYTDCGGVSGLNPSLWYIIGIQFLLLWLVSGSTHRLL
Chain of hERG (Q12809 whole entry): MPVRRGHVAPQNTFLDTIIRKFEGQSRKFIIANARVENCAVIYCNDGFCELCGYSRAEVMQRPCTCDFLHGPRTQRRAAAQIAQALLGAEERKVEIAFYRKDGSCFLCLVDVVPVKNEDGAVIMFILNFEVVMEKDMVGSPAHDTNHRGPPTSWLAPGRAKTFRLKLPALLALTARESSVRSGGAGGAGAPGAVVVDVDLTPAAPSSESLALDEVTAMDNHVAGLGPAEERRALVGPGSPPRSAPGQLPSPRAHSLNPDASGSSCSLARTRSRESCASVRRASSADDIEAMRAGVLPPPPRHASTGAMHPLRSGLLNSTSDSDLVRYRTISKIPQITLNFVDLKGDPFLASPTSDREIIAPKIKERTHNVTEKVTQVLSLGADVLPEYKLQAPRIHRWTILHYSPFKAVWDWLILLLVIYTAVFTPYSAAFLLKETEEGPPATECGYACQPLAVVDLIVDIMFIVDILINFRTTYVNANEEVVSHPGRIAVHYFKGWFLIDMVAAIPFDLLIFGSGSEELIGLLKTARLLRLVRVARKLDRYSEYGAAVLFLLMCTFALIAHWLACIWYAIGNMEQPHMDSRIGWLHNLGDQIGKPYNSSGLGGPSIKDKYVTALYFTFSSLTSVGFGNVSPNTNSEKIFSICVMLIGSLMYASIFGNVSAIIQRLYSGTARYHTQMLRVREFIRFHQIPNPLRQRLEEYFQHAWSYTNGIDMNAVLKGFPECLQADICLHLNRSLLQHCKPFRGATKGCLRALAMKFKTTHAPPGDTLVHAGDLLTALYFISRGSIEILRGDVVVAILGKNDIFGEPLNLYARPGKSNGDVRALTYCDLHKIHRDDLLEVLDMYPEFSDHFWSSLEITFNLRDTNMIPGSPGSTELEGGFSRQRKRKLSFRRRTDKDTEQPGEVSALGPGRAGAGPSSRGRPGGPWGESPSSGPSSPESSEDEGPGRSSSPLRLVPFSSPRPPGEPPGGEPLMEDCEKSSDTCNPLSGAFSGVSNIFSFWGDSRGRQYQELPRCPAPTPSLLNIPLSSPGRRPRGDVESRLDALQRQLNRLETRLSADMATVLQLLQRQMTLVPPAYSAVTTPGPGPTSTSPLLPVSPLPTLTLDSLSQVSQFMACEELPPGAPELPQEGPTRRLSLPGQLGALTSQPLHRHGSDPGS

With `Cc1cc(C)c2cc(C(=O)NC3CC[Si](C)(C)C3)[nH]c2c1` (single isomer, unassigned) [MPL-296A] the “M. ab_ATCC: MIC MHII: MIC” value [1] was under 0.063 µg/mL, the “VERO Cell: Cytotoxicity-IC50” value [2] was over 64 µg/mL and the “M. tb H37Rv: MIC-MABA” value [3] was 0.0007- μg/mL.
Compound `C[C@@H]1C(NC(=O)c2cc3c(F)cc(F)cc3[nH]2)CC2C[C@@H]1C2(C)C` (stereo partly drawn) [JS-2-02] has an IC50 ([4]; Table 2) of 5.17 µM, an IC50 ([5]; hERG IC50, Table 2) of over 10 µM and an IC50 ([6]; Table 2, read-out: hNav1.05 Late IC50) of over 10 µM. For the same compound, the concentration at 1 h ([7]; dog, plasma, po, 50 mg/kg) was 1200 ng/mL, the “Max. QTcv” value ([7]; dogs, 50 mg/kg, PO) was 6.8 ms and the “QTcV @ 1 hr” value ([7]; dogs, 50 mg/kg, PO, 1 hr) was 1.2 ms. The “Max. QTcv” value ([7]; dogs, 150 mg/kg, PO) was 37 ms, the C1 hr ([7]; dogs, 150 mg/kg, PO, 1 hr) was 1100 ng/mL and the “QTcV @ 1 hr” value ([7]; dogs, 150 mg/kg, PO, 1 hr) was 2.8 ms. It also gave an IC50 ([8]; Table 2) of over 10 µM and an IC50 ([9]; Table 2) of 6.2 µM.
In the case of `Cc1cc(C)c2cc(C(=O)NC3CC[Si](C)(C)C3)[nH]c2c1` (single isomer, unassigned) [MPL-296B], the “M. ab_ATCC: MIC MHII: MIC” value [1] is reported as 0.5 µg/mL, the “VERO Cell: Cytotoxicity-IC50” value [2] is reported as over 64 µg/mL and the “M. tb H37Rv: MIC-MABA” value [3] is reported as 0.052- μg/mL.
Work on `C[Si]1(C)CCC(NC(=O)c2cc3c(F)cc(F)cc3[nH]2)CC1` [MPL-204, N-(1,1-dimethylsilinan-4-yl)-4,6-difluoro-1H-indole-2-carboxamide] yielded an MIC [10] of over 32 µg/mL, an MIC [1] of over 64 µg/mL and an IC50 ([4]; Table 3) of over 10 µM. For the same compound, the IC50 ([5]; hERG IC50, Table 3) was over 10 µM, the IC50 [6, 13] was over 10 µM and the MIC [11] was 0.003 µg/mL (≈ 0.0093 µM). For the same compound, the IC50 ([8]; Table 3) was over 10 µM, the IC50 [12] was over 32 µg/mL and the “hKCNQ1 channel inhibition” value [9] was “do not inhibit the hKCNQ1 channel”. The IC50 ([9]; Table 3) was 7.56 µM and the MIC [3] was 0.0035 µg/mL (≈ 0.0109 µM).
In the case of `C[Si]1(C)CCC(NC(=O)c2cc3c(Cl)cc(Cl)cc3[nH]2)CC1` [MPL-203, 4,6-dichloro-N-(1,1-dimethylsilinan-4-yl)-1H-Indole-2-carboxamide], the MIC [10] is reported as over 32 µg/mL, the MIC [1] is reported as over 64 µg/mL and the IC50 ([4]; Table 3) is reported as over 10 µM. The IC50 ([5]; hERG IC50, Table 3) was over 10 µM, the IC50 [6, 13] was over 10 µM and the MIC [11] was 0.003 µg/mL (≈ 0.00844 µM). The IC50 ([8]; Table 3) was over 10 µM, the IC50 [12] was over 32 µg/mL and the “hKCNQ1 channel inhibition” value [9] was “do not inhibit the hKCNQ1 channel”. For the same compound, the IC50 ([9]; Table 3) was 2.71 µM and the MIC [3] was 0.0033 µg/mL (≈ 0.00929 µM).
